Entries after “also recorded” stand apart in the source; their conditions may differ.
Experiments:
[1] = system: HCT 8 and T47D cell lines; assay: MTT, SRB and CVE assays with exposure of up to 10 days; type: cell-based; conditions: 18000 and 26000 cells/well
Excerpt: Graphs depicting the results obtained are shown in FIGS. 6 to 11 (it should be noted that some graphs have the x axis displaying cancer cell kill, whilst others display cancer cell viability).

[2] = Element concentrations in kidney samples of treated rats; type: in vivo; conditions: rat kidney; cisplatin single iv 6.5 mg/kg; CV247 oral 3 ml/kg bd, fourteen days
Excerpt: Liver and kidney samples were subsequently examined to see if CV 247 protected the rats from the accumulation of platinum and platinum free radicals, and what kind of metal ion concentration changes occur after treatment.

Question: For `N.N.[Cl][Pt][Cl]` [Cisplatin, cis-diamminedichloroplatinum], which “effect on cancer cell kill / viability at cisplatin dose of 1 mg” value ([1]; cisplatin 1 mg alone or with CV247) is on record?
Answer: only a marginal long term benefit; also recorded: effect after 4 days was often reduced

Question: What about the “effect on cancer cell kill / viability” value ([1]; high doses of cisplatin, CV247 alone) of the same compound?
Answer: cytotoxic

Question: What about the Pt [2] of the same compound?
Answer: 3.048 ± 0.583
